Paper PMC5961012 (Journal of Antimicrobial Chemotherapy, 2018)
pKd: −log10 of the molar value.

Molecular target: T1, AceR (Acinetobacter baumannii, UniProt P0DUU5)
T1 sequence (P0DUU5 84-297): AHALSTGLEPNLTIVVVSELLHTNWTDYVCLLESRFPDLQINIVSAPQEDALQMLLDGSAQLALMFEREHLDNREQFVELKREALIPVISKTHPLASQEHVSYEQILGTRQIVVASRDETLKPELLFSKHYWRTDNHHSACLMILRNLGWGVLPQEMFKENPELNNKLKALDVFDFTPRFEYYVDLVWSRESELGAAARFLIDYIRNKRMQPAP
Experiment: SPR
Format: binding

Q: `[H]/N=C(\N/C(=N/[H])NCCCCCCNC(=N)NC(=N)Nc1ccc(Cl)cc1)Nc1ccc(Cl)cc1` [chlorhexidine] was tested. Which pKd did it give?
A: Its pKd is 4.21.
